Test results: patent publication US20200332222A1, “MUSK COMPOSITIONS AND METHODS OF USE THEREOF” (TAKASAGO INTERNATIONAL CORPORATION (USA), priority 2015, published 2020)

What was measured:
salivary alpha-amylase = test: Salivary alpha-amylase before vs after timed ten minute mathematical/word stress test, fragrance inhaled; type: in vivo, human; settings: for Salivary Amylase Data (change before vs after stress test): Table 6, about 10-15 panelists, DPG control +60.7%; for Percent change in salivary alpha-amylase: solvent only control 66.8%
Method: Fourteen female panelists age 30-45 participated in this study. Stress was induced using a timed ten minute mathematical/word test in a small group competition setting. Fragrance was introduced at intervals during the stress test. Saliva was collected before (Pre) and immediately after (Post) the stress test. Saliva samples were assayed for salivary alpha-amylase using a commercially available kinetic reaction assay kit and for salivary cortisol using a highly sensitive enzyme immunoassay kit (Salimetrics®, State College, Pa.). […]
(§1) Saliva was collected before (Pre) and immediately after (Post) the stress test. Saliva samples were assayed for salivary alpha-amylase using a commercially available kinetic reaction assay kit and for salivary cortisol using a highly sensitive enzyme immunoassay kit (Salimetrics®, State College, Pa.).

salivary cortisol = test: Salivary cortisol before vs after timed ten minute mathematical/word stress test, fragrance inhaled; type: in vivo, human; settings: for Cortisol Data (change before vs after stress test): Table 6, about 10-15 panelists, DPG control −10.9%
Description: Salivary cortisol is widely used as a biomarker for stress. The purpose of this study was to investigate the influence of individual fragrance compounds, particularly musk compounds, on a subject's cortisol levels before and after exposure to a stressor. The subject sniffed each musk compound, then was exposed to a stressor. The goal was to identify one or more specific musk compounds which caused the least amount of change in cortisol levels or decreased a subject's cortisol levels compared to before administration, thereby reducing or inhibiting a response to stress stimuli. […]
Stress was induced in a number of panelists (about 10-15) for each tested compound using a timed ten minute mathematical/word test in a small group competition setting. The test compound was introduced at intervals during the stress test.
Saliva was collected before and immediately after the stress test. Saliva samples were assayed for salivary cortisol levels and salivary alpha-amylase activity using a commercially available kinetic reaction assay kit (Salimetrics®, State College, Pa.). […]
as §1

[1] = Chassis-air partition coefficient of accord components; type: physicochemical; settings: BC-162 shampoo chassis
Description: The chassis-air partition coefficient can be measured for materials in various chassis.
Ki,chassis-air is the chassis-air partition coefficient for component i in the fragrance formula
Ci, chassis is the concentration of component i in the product formula chassis in molarity, M
Ci, air is the concentration of component i in the headspace air in equilibrium with the formula chassis in molarity, M
For the “Example Accord” in the BC-162 shampoo chassis components, the log chassis-air partition coefficients are as listed in Table 11.

[2] = as above; type: physicochemical
brain waves = test: Contingent Negative Variant (CNV) analysis of brain waves recorded by EEG; type: in vivo, human; settings: Example 9; Musk T 10% by weight in DPG
Method: Contingent Negative Variant (CNV) analysis was conducted on brain waves recorded from subjects using EEG (electroencephalography) in the presence of the musk fragrance compound. CNV analysis is summarized in Okazaki et al., Proceedings of the 13th International Congress of Flavours, Fragrances and Essential Oils, 15-19 Oct. 1995.

[3] = Table 4, macrocyclic musks, 12-14 female panelists age 30-45, before vs immediately after stress test
[4] = Table 5, non-macrocyclic musks, methods as Example 6

logK, BC162 (log chassis-air partition coefficient) [1]	logK, APDO Soft Solid (log chassis-air partition coefficient) [2]	Compound	Salivary Amylase Data (change before vs after stress test) (salivary alpha-amylase)	Cortisol Data (change before vs after stress test) (salivary cortisol)	Percent change in salivary alpha-amylase (salivary alpha-amylase; [3]) [%]	other results
–	–	CC(=O)c1cc2c(cc1C)C(C)(C)C(C)C2(C)C (stereo not shown) [Phantolide, 1-(1,1,2,3,3,6-hexamethyl-2H-inden-5-yl)ethanone]	−19.2%	−12.3%	–	–
–	–	CC1CCCCCCCCCCCCC(=O)C1 [L-Muscone]	+14.5%	+25.6%	–	–
7.809	6.135	CC(=O)CCc1ccc(O)cc1 [PARA HYDROXY PHENYL BUTANONE]	–	–	–	–
5.505	6.693	O=C1CCCCCCCCC/C=C/CCCO1 [Habanolide, (12E)-1-oxacyclohexadec-12-en-2-one]	+4.67%	−20.6%	4.7	–
–	–	O=C1CCCCC=CCCCCCCCCCO1 [Ambrettolide, 17-oxacycloheptadec-6-en-1-one]	+13.16%	−11.25%	13.1	–
–	–	CC1=CCC(C/C=C(\C)CO)C1(C)C (stereo not shown) [Hindinol, (E)-2-methyl-4-(2,2,3-trimethyl-1-cyclopent-3-enyl)but-2-en-1-ol]	+82.3%	−25.0%	–	Percent change in salivary alpha-amylase (salivary alpha-amylase; [4]): 82.3%
–	–	CC(=O)C(C)CC[C@H]1CCC(C)C1(C)C (stereo partly drawn) [3-methyl-5-((1R)-2,2,3-trimethylcyclopentyl)pentan-2-one]	−6.1%	−16.5%	–	–
–	–	CC(=O)OC(C)C1CCCC(C)(C)C1 (stereo not shown) [Rosamusk, 1-(3,3-dimethylcyclohexyl)ethyl acetate]	−15.2%	+6.68%	–	Pre vs. Post salivary alpha-amylase level, decrease in response to stress test (salivary alpha-amylase; Example 10, FIG. 7, Rosamusk 10% by weight in DPG, DPG alone increased 33%): 15%; Pre vs. Post salivary cortisol level, increase in response to stress test (salivary cortisol; Example 10, FIG. 8, Rosamusk 10% by weight in DPG, DPG alone 25%): 7%
–	–	CCOC(=O)[C@@H]1[C@@H](C)CCCC1(C)C [ethyl (1R,6S)-2,2,6-trimethylcyclohexane-1-carboxylate]	–	–	–	Percent change in salivary alpha-amylase (salivary alpha-amylase; [4]): 70.7%
5.780	6.970	O=C1CCCCCCCCCOCCCCCO1 [MUSK RI, 11-Oxahexadecan-16-olide]	–	–	–	–
–	–	O=C1CCCC=CCCCCCCCCCC1 [Ambretone ®, 5-Cyclohexadecen-1-one]	–	–	36.9	–
6.345	7.306	O=C1CCCCCCCCCCCC(=O)OCCO1 [Musk T ®, ethylene brassylate]	–	–	47.1	Pre vs. Post salivary alpha-amylase level, increase in response to stress test (salivary alpha-amylase; Example 8, FIG. 3, Musk T 2.5% by weight in fragrance (floral fragrance/Musk T 75/25 admixture, 10% in DPG), DPG alone 120%): 38%; Pre vs. Post salivary alpha-amylase level, increase in response to stress test (salivary alpha-amylase; Example 9, FIG. 5, Musk T 10% by weight in DPG, DPG alone 161%): 47%; increase in the level of relaxation, CNV analysis of brain waves (brain waves): 32.5%; Pre vs. Post salivary cortisol level, decrease in response to stress test (salivary cortisol; Example 8, FIG. 4, Musk T 2.5% by weight in fragrance (floral fragrance/Musk T 75/25 admixture, 10% in DPG), DPG alone increased 24%): 8%; Pre vs. Post salivary cortisol level, increase in response to stress test (salivary cortisol; Example 9, FIG. 6, Musk T 10% by weight in DPG, DPG alone 41%): 10%
5.356	6.729	O=C1CCCCCCCCCCCCCCO1 [EXALTOLIDE, 16-oxacyclohexadecan-1-one]	–	–	–	–
